Test results reported in publication PMC9637222, “Autoinducer-2 and bile salts induce c-di-GMP synthesis to repress the T3SS via a T3SS chaperone” (Nature Communications, 2022).
Values joined by “and” are separate entries in the source; they are usually repeats but may differ in a detail not shown here. Equal values may be shown once. Read-outs that look alike come from different tables or passages of the source.

Experiments:
[1] = biological target: T1, SicA (Salmonella typhimurium, UniProt P69066); experiment: ITC: nucleotide (c-di-GMP, c-di-AMP, cGMP) binding to SicA; parameters: species or system S. Typhimurium
T1 construct: His6 (N, cleaved yes); made in house; host or cells: E. coli BL21(DE3), pET-28a (pET28a-sicA)

[2] = biological target: T2, SicA K27A (Salmonella typhimurium, UniProt P69066, K27A); assay type: binding, S. Typhimurium
T2 construct: His6 (N, cleaved yes); made in house; host or cells: E. coli BL21(DE3), pET-28a (pET28a-sicAK27A)

[3] = biological target: T3, SicA D28A (Salmonella typhimurium, UniProt P69066, D28A); assay type: binding, S. Typhimurium
T3 construct: His6 (N, cleaved yes); made in house; host or cells: E. coli BL21(DE3), pET-28a (pET28a-sicAD28A)

[4] = biological target: T4, SicA Q34A (Salmonella typhimurium, UniProt P69066, Q34A); assay type: binding, S. Typhimurium
T4 construct: His6 (N, cleaved yes); made in house; host or cells: E. coli BL21(DE3), pET-28a (pET28a-sicAQ34A)

[5] = biological target: T5, SicA N70A (Salmonella typhimurium, UniProt P69066, N70A); assay type: binding, S. Typhimurium
T5 construct: His6 (N, cleaved yes); made in house; host or cells: E. coli BL21(DE3), pET-28a (pET28a-sicAN70A)

[6] = biological target: PcrH (WP_003113548) (Pseudomonas aeruginosa, UniProt Q9I325); assay type: binding; details: for Kd: ITC
[7] = biological target: T6, IpgC (WP_000055835) (Shigella flexneri, UniProt P0A2U4); assay type: binding, S. flexneri serotype 2a; details: for Kd: ITC
T6 construct: His6 (N, cleaved yes); made in house; host or cells: E. coli BL21(DE3), pET-28a (pET28a-ipgC)

[8] = biological target: T7, CesD (WP_000379288) (Escherichia coli O157:H7, UniProt Q8X6H6); assay type: binding, EHEC O157:H7; details: for Kd: ITC
T7 sequence (Q8X6H6 1-163): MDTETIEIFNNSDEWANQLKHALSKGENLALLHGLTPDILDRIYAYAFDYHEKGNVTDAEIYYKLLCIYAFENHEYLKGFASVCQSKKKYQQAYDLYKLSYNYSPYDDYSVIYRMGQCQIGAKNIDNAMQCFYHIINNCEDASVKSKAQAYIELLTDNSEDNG

[9] = biological target: T8, BicA (WP_009896148) (Burkholderia thailandensis, UniProt Q2T712); assay type: binding
T8 sequence (Q2T712 1-171): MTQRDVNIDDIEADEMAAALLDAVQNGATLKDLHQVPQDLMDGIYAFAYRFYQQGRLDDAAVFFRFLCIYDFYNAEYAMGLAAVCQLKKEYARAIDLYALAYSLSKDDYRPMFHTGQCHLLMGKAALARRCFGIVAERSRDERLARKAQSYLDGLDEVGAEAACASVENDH

[10] = biological target: T9, VcrH (WP_005464462) (Vibrio parahaemolyticus, UniProt Q87P60); assay type: binding; details: for Kd: ITC
T9 sequence (Q87P60 1-162): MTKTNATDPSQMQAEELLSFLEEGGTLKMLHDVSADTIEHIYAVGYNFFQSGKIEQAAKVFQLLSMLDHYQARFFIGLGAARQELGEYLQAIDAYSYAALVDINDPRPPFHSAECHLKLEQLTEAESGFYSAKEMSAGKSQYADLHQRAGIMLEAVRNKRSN

[11] = tested on: T10, T3SS ATPase InvC (STM2894); experiment: ITC: c-di-GMP binding to T3SS ATPase InvC; details: T3SS ATPase from S. Typhimurium
T10 construct: His6 (N, cleaved yes); made in house; host or cells: E. coli BL21(DE3) (pET28a-invC)
Experimental: (§1) Supplementary Fig. 25 Neither the T3SS ATPase InvC (STM2894) from S. Typhimurium nor the T3SS ATPase PA1697 from P. aeruginosa interacts with c-di-GMP
(§2) The binding affinity was evaluated by ITC analysis. ITC data and plots of injected heat for automatic injections of 100 μM c-di-GMP into the sample cell containing 10 μM InvC (a) or PA1697 (b) are shown inthe upper and lower plots, respectively. […]
(§3) the finalanalysis. Results shown are one representative of three experiments with similar results.

[12] = tested on: T3SS ATPase PA1697; experiment: ITC: c-di-GMP binding to T3SS ATPase PA1697; details: T3SS ATPase from P. aeruginosa
Experimental: as §1, §2, §3

[13] = tested on: SipB-His6 / SicA-HA; experiment: Co-IP of SipB-His6 with SicA-HA in presence of c-di-GMP; details: dose-dependent
[14] = tested on: SipC-His6 / SicA-HA; experiment: Co-IP of SipC-His6 with SicA-HA in presence of c-di-GMP; details: dose-dependent
[15] = tested on: InvF-His6 / SicA-HA; experiment: Co-IP of InvF-His6 with SicA-HA in presence of nucleotides; details: nucleotide added to lysate
[16] = individual experiments, source data Fig. 5a
[17] = range given for all 6 chaperones (PcrH, IpgC, SycD, CesD, BicA, VcrH), read-out: Kd

Sequence of PcrH (WP_003113548) (Q9I325 1-167): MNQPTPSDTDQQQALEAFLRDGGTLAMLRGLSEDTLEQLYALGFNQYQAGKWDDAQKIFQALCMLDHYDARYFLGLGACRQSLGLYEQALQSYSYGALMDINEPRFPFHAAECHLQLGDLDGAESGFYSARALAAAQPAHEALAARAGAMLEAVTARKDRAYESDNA
T3 sequence (P69066 whole entry D28A): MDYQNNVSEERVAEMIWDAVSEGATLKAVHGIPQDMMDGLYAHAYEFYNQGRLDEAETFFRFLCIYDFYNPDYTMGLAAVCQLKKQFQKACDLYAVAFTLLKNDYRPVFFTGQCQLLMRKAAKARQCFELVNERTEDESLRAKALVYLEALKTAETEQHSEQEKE
T4 sequence (P69066 whole entry Q34A): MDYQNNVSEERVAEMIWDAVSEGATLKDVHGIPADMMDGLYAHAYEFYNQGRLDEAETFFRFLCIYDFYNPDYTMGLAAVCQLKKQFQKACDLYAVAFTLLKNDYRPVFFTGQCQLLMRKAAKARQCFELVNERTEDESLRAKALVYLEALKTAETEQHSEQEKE
T5 sequence (P69066 whole entry N70A): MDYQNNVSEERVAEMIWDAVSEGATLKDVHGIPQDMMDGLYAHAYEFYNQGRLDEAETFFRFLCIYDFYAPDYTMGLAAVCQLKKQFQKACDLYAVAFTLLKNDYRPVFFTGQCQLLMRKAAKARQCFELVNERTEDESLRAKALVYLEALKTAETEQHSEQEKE
T6 sequence (P0A2U4 whole entry): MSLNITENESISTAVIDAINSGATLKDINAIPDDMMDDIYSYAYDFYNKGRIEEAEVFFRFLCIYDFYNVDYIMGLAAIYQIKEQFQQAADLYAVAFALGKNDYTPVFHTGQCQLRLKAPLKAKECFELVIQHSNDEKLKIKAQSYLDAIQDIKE
T1 sequence (P69066 whole entry): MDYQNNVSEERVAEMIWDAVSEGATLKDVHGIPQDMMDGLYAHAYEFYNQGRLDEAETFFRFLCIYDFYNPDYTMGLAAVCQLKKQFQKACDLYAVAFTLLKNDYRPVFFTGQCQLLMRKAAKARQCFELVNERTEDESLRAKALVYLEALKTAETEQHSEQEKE
T2 sequence (P69066 whole entry K27A): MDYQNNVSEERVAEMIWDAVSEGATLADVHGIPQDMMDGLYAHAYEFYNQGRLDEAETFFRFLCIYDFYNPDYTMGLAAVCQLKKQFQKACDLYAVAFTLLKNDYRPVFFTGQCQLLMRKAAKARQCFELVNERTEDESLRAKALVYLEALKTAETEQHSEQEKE

`Nc1nc2c(ncn2C2OC3COP(=O)(O)OC4C(COP(=O)(O)OC3C2O)OC(n2cnc3c(=O)[nH]c(N)nc32)C4O)c(=O)[nH]1` (centres unmarked) [c-di-GMP, Cyclic di-GMP] was tested, and the Kd ([1]; c-di-GMP : SicA WT, mean ± s.d. of three independent experiments) was 210 ± 90 nM, the Kd [1, 16] was 320 nM and 100 nM and the “n (complex stoichiometry)” value [1, 16] was 1.14 and 1.11 and 1.21. For the same compound, the “n, c-di-GMP binding to SicAK27A” value ([2]; ITC binding stoichiometry n, individual replicates, Supplementary Figure 17a) was 1.03 and 0.93 and 0.96, the Kd ([2]; binding to SicA K27A) was 41000 nM and 33000 nM and 39000 nM and the “n, c-di-GMP binding to SicAD28A” value ([3]; ITC binding stoichiometry n, individual replicates, Supplementary Figure 17b) was 1.08 and 1.02 and 0.98. The Kd ([3]; binding to SicA D28A) was 21000 nM and 26000 nM and 20000 nM, the “n, c-di-GMP binding to SicAQ34A” value ([4]; ITC binding stoichiometry n, individual replicates, Supplementary Figure 17c) was 1.05 and 1.09 and the Kd ([4]; binding to SicA Q34A) was 15000 nM and 12000 nM and 14000 nM. The “n, c-di-GMP binding to SicAN70A” value ([5]; ITC binding stoichiometry n, individual replicates, Supplementary Figure 17e) was 0.95 and 1.03, the “Increase in Kd, SicA N70A versus SicA” value ([5]; ITC, peer review file) was 140 fold and the Kd ([5]; binding to SicA N70A) was 28000 nM and 31000 nM and 32000 nM. For the same compound, the “n, c-di-GMP binding to PcrH” value ([6]; ITC binding stoichiometry n, individual replicates, Supplementary Figure 22a) was 1.15 and 1.14 and 1.18, the Kd ([6]; individual replicates, Supplementary Figure 22a, read-out: Kd, c-di-GMP binding to PcrH) was 130 nM and 190 nM and the Kd [6, 17] was 150 to 220 nM. The “n, c-di-GMP binding to IpgC” value ([7]; ITC binding stoichiometry n, individual replicates, Supplementary Figure 22b) was 1.23 and 1.10 and 1.13, the Kd ([7]; individual replicates, Supplementary Figure 22b, read-out: Kd, c-di-GMP binding to IpgC) was 200 nM and 250 nM and 220 nM and the Kd [7, 17] was 150 to 220 nM. For the same compound, the “n, c-di-GMP binding to CesD” value ([8]; ITC binding stoichiometry n, individual replicates, Supplementary Figure 22d) was 1.03 and 1.09 and 1.15, the Kd ([8]; individual replicates, Supplementary Figure 22d, read-out: Kd, c-di-GMP binding to CesD) was 170 nM and 180 nM and 190 nM and the Kd [8, 17] was 150 to 220 nM. For the same compound, the Kd [9] was 150 to 220 nM, the “n, c-di-GMP binding to BicA” value [9] was 1.12 and 1.17 and 1.14 and the Kd ([9]; read-out: Kd, c-di-GMP binding to BicA) was 190 nM and 200 nM and 240 nM. For the same compound, the “n, c-di-GMP binding to VcrH” value ([10]; ITC binding stoichiometry n, individual replicates, Supplementary Figure 22f) was 1.12 and 1.10, the Kd ([10]; individual replicates, Supplementary Figure 22f, read-out: Kd, c-di-GMP binding to VcrH) was 140 nM and 160 nM and the Kd [10, 17] was 150 to 220 nM. For the same compound, the “Interaction with T3SS ATPase (in words)” value [11] was “no interactions”, the “Interaction with T3SS ATPase (in words)” value [12] was “no interactions” and the “Effect on co-IP of SipB-His6 with SicA-HA (in words)” value [13] was “decreased”. The “Effect on co-IP of SipC-His6 with SicA-HA (in words)” value [14] was “decreased” and the “Effect on co-IP of InvF-His6 with SicA-HA (in words)” value [15] was “impaired”.
